Source: patent US7118895B2, “Process for producing aglycon by using diglycosidase and flavor-improved food containing the aglycon and converting agent to be used in the process” (Amano Enzyme Inc., priority 2000, dated 2006)

How the values were obtained:
[1] = test system: β-Glucosidase derived from A. niger; test: Reactivity toward various isoflavone glycosides (HPLC); type: biochemical, Aspergillus niger; set-up: glucoside / aglycon: unit not given here; settings: 55 °C, pH 4.0
Protocol: Diglycosidase was diluted with an acetate buffer of pH 4.0 to prepare a 0.75 AU/mL enzyme solution. As references, a similar operation was conducted using β-glucosidase (manufactured by Fluka) derived from Aspergillus niger, β-glucosidase (manufactured by Sigma) derived from almond, β-xylosidase derived from pectinase G (manufactured by Amano Enzyme Inc.). Each of purified products of isoflavone glycosides (glycitin, acetylglycitin, malonylglycitin, daidzin, acetyldaidzin, malonyldaidzin, genistin, acetylgenistin, malonylgenistin, all manufactured by Nacalai Tesque, Inc.) was dissolved in methanol to prepare each 2 mM substrate solution. The reaction was carried out by mixing 10 μL of a substrate solution, 200 μL of 20 mM acetate buffer (pH 4.0), and 40 μL of each purified enzyme solution at a total liquid volume of 250 μL. The reaction was carried out at 55° C. and isolation of an aglycon isoflavone from an isoflavone glycoside in the reaction mixture was detected by HLPC at 0, 1, 3, and 6 hours of the reaction.
To the reaction mixture was added 700 μL of ethanol, followed by stirring and ultrasonication. After centrifugation at 15,000 rpm and 4° C. for 10 minutes, the supernatant was filtered through a filter and then the filtrate was applied to HPLC.
The isoflavone glycoside and aglycon isoflavone contained in the filtrate was separated and detected by a high performance liquid chromatography (HPLC, Shimadzu CLASS LC-10 system) using TOSOH TSK gel ODS-80TM column (manufactured by Tosoh Corporation). […] The absorbance at 260 nm was detected by a UV detector (Shimadzu, SPD-10AV). Using purified products (manufactured by Nacalai Tesque, Inc.) of the above isoflavone glycosides and aglycon isoflavones, the isoflavone glycoside and aglycon isoflavone were quantitatively determined according to a calibration curve method. By the way, unless otherwise stated, the measuring conditions of HPLC herein mean those described in the example.

Crude diglycosidase = test: Examination of substrate concentration in the conversion into isoflavone aglycons by diglycosidase using soybean materials; type: biochemical, Penicillium multicolor IAM7153;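 on Decomposition efficiency: ratio of each glycoside/aglycon within its isoflavone family: percent of the isoflavone family total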
Outline: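 Soybean materials (roasted soy flour, soymilk, defatted soybean, concentrated soy protein) at 2–30% (w/v) in 20 mM acetate pH 4.0 were reacted with crude diglycosidase at 55° C with shaking; enzyme solution added was 1.88 AU/mL. Samples taken at 0, 1, 3 and 6 h were ethanol-extracted and analyzed by HPLC.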

- aglycon ([1]; Reaction time 0 h): 0
- glucoside ([1]; Reaction time 0 h): 100
- aglycon ([1]; Reaction time 1 h): 1.4
- glucoside ([1]; Reaction time 1 h): 98.6
- aglycon ([1]; Reaction time 3 h): 3.3
- glucoside ([1]; Reaction time 3 h): 96.7
- aglycon ([1]; Reaction time 6 h): 6.2
- glucoside ([1]; Reaction time 6 h): 93.8
- Decomposition efficiency: ratio of each glycoside/aglycon within its isoflavone family (Crude diglycosidase; concentrated soybean protein, substrate concentration 2%, heat treatment of enzyme no, reaction time 0 h): 42.9%
- Decomposition efficiency: ratio of each glycoside/aglycon within its isoflavone family (Crude diglycosidase; concentrated soybean protein, substrate concentration 2%, heat treatment of enzyme no, reaction time 1 h): 20.0%
- Decomposition efficiency: ratio of each glycoside/aglycon within its isoflavone family (Crude diglycosidase; concentrated soybean protein, substrate concentration 2%, heat treatment of enzyme no, reaction time 3 h): 8.3%
- Decomposition efficiency: ratio of each glycoside/aglycon within its isoflavone family (Crude diglycosidase; concentrated soybean protein, substrate concentration 2%, heat treatment of enzyme no, reaction time 6 h): 3.3%
- Decomposition efficiency: ratio of each glycoside/aglycon within its isoflavone family (Crude diglycosidase; concentrated soybean protein, substrate concentration 2%, heat treatment of enzyme yes, reaction time 6 h): 41.3%
- Decomposition efficiency: ratio of each glycoside/aglycon within its isoflavone family (Crude diglycosidase; concentrated soybean protein, substrate concentration 5%, heat treatment of enzyme no, reaction time 0 h): 43.1%
- Decomposition efficiency: ratio of each glycoside/aglycon within its isoflavone family (Crude diglycosidase; concentrated soybean protein, substrate concentration 5%, heat treatment of enzyme no, reaction time 1 h): 36.4%
- Decomposition efficiency: ratio of each glycoside/aglycon within its isoflavone family (Crude diglycosidase; concentrated soybean protein, substrate concentration 5%, heat treatment of enzyme no, reaction time 3 h): 26.3%
- Decomposition efficiency: ratio of each glycoside/aglycon within its isoflavone family (Crude diglycosidase; concentrated soybean protein, substrate concentration 5%, heat treatment of enzyme no, reaction time 6 h): 17.8%
- Decomposition efficiency: ratio of each glycoside/aglycon within its isoflavone family (Crude diglycosidase; concentrated soybean protein, substrate concentration 5%, heat treatment of enzyme yes, reaction time 6 h): 41.7%
- Decomposition efficiency: ratio of each glycoside/aglycon within its isoflavone family (Crude diglycosidase; concentrated soybean protein, substrate concentration 10%, heat treatment of enzyme no, reaction time 0 h): 43.4%
- Decomposition efficiency: ratio of each glycoside/aglycon within its isoflavone family (Crude diglycosidase; concentrated soybean protein, substrate concentration 10%, heat treatment of enzyme no, reaction time 1 h): 42.8%
- Decomposition efficiency: ratio of each glycoside/aglycon within its isoflavone family (Crude diglycosidase; concentrated soybean protein, substrate concentration 10%, heat treatment of enzyme no, reaction time 3 h): 37.3%
- Decomposition efficiency: ratio of each glycoside/aglycon within its isoflavone family (Crude diglycosidase; concentrated soybean protein, substrate concentration 10%, heat treatment of enzyme no, reaction time 6 h): 33.2%
- Decomposition efficiency: ratio of each glycoside/aglycon within its isoflavone family (Crude diglycosidase; concentrated soybean protein, substrate concentration 10%, heat treatment of enzyme yes, reaction time 6 h): 42.8%
- Decomposition efficiency: ratio of each glycoside/aglycon within its isoflavone family (Crude diglycosidase; concentrated soybean protein, substrate concentration 20%, heat treatment of enzyme no, reaction time 0 h): 43.7%
- Decomposition efficiency: ratio of each glycoside/aglycon within its isoflavone family (Crude diglycosidase; concentrated soybean protein, substrate concentration 20%, heat treatment of enzyme no, reaction time 1 h): 47.0%
- Decomposition efficiency: ratio of each glycoside/aglycon within its isoflavone family (Crude diglycosidase; concentrated soybean protein, substrate concentration 20%, heat treatment of enzyme no, reaction time 3 h): 44.6%
- Decomposition efficiency: ratio of each glycoside/aglycon within its isoflavone family (Crude diglycosidase; concentrated soybean protein, substrate concentration 20%, heat treatment of enzyme no, reaction time 6 h): 42.3%
- Decomposition efficiency: ratio of each glycoside/aglycon within its isoflavone family (Crude diglycosidase; concentrated soybean protein, substrate concentration 20%, heat treatment of enzyme yes, reaction time 6 h): 43.2%
- Decomposition efficiency: ratio of each glycoside/aglycon within its isoflavone family (Crude diglycosidase; concentrated soybean protein, substrate concentration 30%, heat treatment of enzyme no, reaction time 0 h): 43.5%
- Decomposition efficiency: ratio of each glycoside/aglycon within its isoflavone family (Crude diglycosidase; concentrated soybean protein, substrate concentration 30%, heat treatment of enzyme no, reaction time 1 h): 65.3%
- Decomposition efficiency: ratio of each glycoside/aglycon within its isoflavone family (Crude diglycosidase; concentrated soybean protein, substrate concentration 30%, heat treatment of enzyme no, reaction time 3 h): 61.0%
- Decomposition efficiency: ratio of each glycoside/aglycon within its isoflavone family (Crude diglycosidase; concentrated soybean protein, substrate concentration 30%, heat treatment of enzyme no, reaction time 6 h): 55.9%
- Decomposition efficiency: ratio of each glycoside/aglycon within its isoflavone family (Crude diglycosidase; concentrated soybean protein, substrate concentration 30%, heat treatment of enzyme yes, reaction time 6 h): 42.4%
- Decomposition efficiency: ratio of each glycoside/aglycon within its isoflavone family (Crude diglycosidase; roasted soy flour, substrate concentration 2%, heat treatment of enzyme no, reaction time 0 h): 44.7%
- Decomposition efficiency: ratio of each glycoside/aglycon within its isoflavone family (Crude diglycosidase; roasted soy flour, substrate concentration 2%, heat treatment of enzyme no, reaction time 1 h): 10.6%
- Decomposition efficiency: ratio of each glycoside/aglycon within its isoflavone family (Crude diglycosidase; roasted soy flour, substrate concentration 2%, heat treatment of enzyme no, reaction time 3 h): 5.0%
- Decomposition efficiency: ratio of each glycoside/aglycon within its isoflavone family (Crude diglycosidase; roasted soy flour, substrate concentration 2%, heat treatment of enzyme no, reaction time 6 h): 1.5%
- Decomposition efficiency: ratio of each glycoside/aglycon within its isoflavone family (Crude diglycosidase; roasted soy flour, substrate concentration 2%, heat treatment of enzyme yes, reaction time 6 h): 45.0%
- Decomposition efficiency: ratio of each glycoside/aglycon within its isoflavone family (Crude diglycosidase; roasted soy flour, substrate concentration 5%, heat treatment of enzyme no, reaction time 0 h): 44.7%
- Decomposition efficiency: ratio of each glycoside/aglycon within its isoflavone family (Crude diglycosidase; roasted soy flour, substrate concentration 5%, heat treatment of enzyme no, reaction time 1 h): 22.1%
- Decomposition efficiency: ratio of each glycoside/aglycon within its isoflavone family (Crude diglycosidase; roasted soy flour, substrate concentration 5%, heat treatment of enzyme no, reaction time 3 h): 15.2%
- Decomposition efficiency: ratio of each glycoside/aglycon within its isoflavone family (Crude diglycosidase; roasted soy flour, substrate concentration 5%, heat treatment of enzyme no, reaction time 6 h): 9.2%
- Decomposition efficiency: ratio of each glycoside/aglycon within its isoflavone family (Crude diglycosidase; roasted soy flour, substrate concentration 5%, heat treatment of enzyme yes, reaction time 6 h): 44.7%
- Decomposition efficiency: ratio of each glycoside/aglycon within its isoflavone family (Crude diglycosidase; roasted soy flour, substrate concentration 10%, heat treatment of enzyme no, reaction time 0 h): 38.2%
- Decomposition efficiency: ratio of each glycoside/aglycon within its isoflavone family (Crude diglycosidase; roasted soy flour, substrate concentration 10%, heat treatment of enzyme no, reaction time 1 h): 33.3%
- Decomposition efficiency: ratio of each glycoside/aglycon within its isoflavone family (Crude diglycosidase; roasted soy flour, substrate concentration 10%, heat treatment of enzyme no, reaction time 3 h): 25.3%
- Decomposition efficiency: ratio of each glycoside/aglycon within its isoflavone family (Crude diglycosidase; roasted soy flour, substrate concentration 10%, heat treatment of enzyme no, reaction time 6 h): 18.7%
- Decomposition efficiency: ratio of each glycoside/aglycon within its isoflavone family (Crude diglycosidase; roasted soy flour, substrate concentration 10%, heat treatment of enzyme yes, reaction time 6 h): 45.9%
- Decomposition efficiency: ratio of each glycoside/aglycon within its isoflavone family (Crude diglycosidase; roasted soy flour, substrate concentration 20%, heat treatment of enzyme no, reaction time 0 h): 46.1%
- Decomposition efficiency: ratio of each glycoside/aglycon within its isoflavone family (Crude diglycosidase; roasted soy flour, substrate concentration 20%, heat treatment of enzyme no, reaction time 1 h): 44.1%
- Decomposition efficiency: ratio of each glycoside/aglycon within its isoflavone family (Crude diglycosidase; roasted soy flour, substrate concentration 20%, heat treatment of enzyme no, reaction time 3 h): 35.8%
- Decomposition efficiency: ratio of each glycoside/aglycon within its isoflavone family (Crude diglycosidase; roasted soy flour, substrate concentration 20%, heat treatment of enzyme no, reaction time 6 h): 28.6%
- Decomposition efficiency: ratio of each glycoside/aglycon within its isoflavone family (Crude diglycosidase; roasted soy flour, substrate concentration 20%, heat treatment of enzyme yes, reaction time 6 h): 46.2%
- Decomposition efficiency: ratio of each glycoside/aglycon within its isoflavone family (Crude diglycosidase; roasted soy flour, substrate concentration 30%, heat treatment of enzyme no, reaction time 0 h): 46.7%
- Decomposition efficiency: ratio of each glycoside/aglycon within its isoflavone family (Crude diglycosidase; roasted soy flour, substrate concentration 30%, heat treatment of enzyme no, reaction time 1 h): 46.6%
- Decomposition efficiency: ratio of each glycoside/aglycon within its isoflavone family (Crude diglycosidase; roasted soy flour, substrate concentration 30%, heat treatment of enzyme no, reaction time 3 h): 41.4%
- Decomposition efficiency: ratio of each glycoside/aglycon within its isoflavone family (Crude diglycosidase; roasted soy flour, substrate concentration 30%, heat treatment of enzyme no, reaction time 6 h): 37.8%
- Decomposition efficiency: ratio of each glycoside/aglycon within its isoflavone family (Crude diglycosidase; roasted soy flour, substrate concentration 30%, heat treatment of enzyme yes, reaction time 6 h): 46.1%
- Decomposition efficiency of genistin family in defatted soybean (Crude diglycosidase; substrate concentration 2%, heat treatment of enzyme no, reaction time 0 h): 1.8
- Decomposition efficiency of genistin family in defatted soybean (Crude diglycosidase; substrate concentration 2%, heat treatment of enzyme no, reaction time 1 h): not detected
- Decomposition efficiency of genistin family in defatted soybean (Crude diglycosidase; substrate concentration 2%, heat treatment of enzyme no, reaction time 3 h): not detected
- Decomposition efficiency of genistin family in defatted soybean (Crude diglycosidase; substrate concentration 2%, heat treatment of enzyme no, reaction time 6 h): not detected
- Decomposition efficiency of genistin family in defatted soybean (Crude diglycosidase; substrate concentration 2%, heat treatment of enzyme yes, reaction time 6 h): 1.5
- Decomposition efficiency of genistin family in defatted soybean (Crude diglycosidase; substrate concentration 5%, heat treatment of enzyme no, reaction time 0 h): 1.9
- Decomposition efficiency of genistin family in defatted soybean (Crude diglycosidase; substrate concentration 5%, heat treatment of enzyme no, reaction time 1 h): 0.8
- Decomposition efficiency of genistin family in defatted soybean (Crude diglycosidase; substrate concentration 5%, heat treatment of enzyme no, reaction time 3 h): 0.5
- Decomposition efficiency of genistin family in defatted soybean (Crude diglycosidase; substrate concentration 5%, heat treatment of enzyme no, reaction time 6 h): 0.3
- Decomposition efficiency of genistin family in defatted soybean (Crude diglycosidase; substrate concentration 5%, heat treatment of enzyme yes, reaction time 6 h): 1.8
- Decomposition efficiency of genistin family in defatted soybean (Crude diglycosidase; substrate concentration 10%, heat treatment of enzyme no, reaction time 0 h): 1.9
- Decomposition efficiency of genistin family in defatted soybean (Crude diglycosidase; substrate concentration 10%, heat treatment of enzyme no, reaction time 1 h): 1.3
- Decomposition efficiency of genistin family in defatted soybean (Crude diglycosidase; substrate concentration 10%, heat treatment of enzyme no, reaction time 3 h): 0.9
- Decomposition efficiency of genistin family in defatted soybean (Crude diglycosidase; substrate concentration 10%, heat treatment of enzyme no, reaction time 6 h): 0.6
- Decomposition efficiency of genistin family in defatted soybean (Crude diglycosidase; substrate concentration 10%, heat treatment of enzyme yes, reaction time 6 h): 1.7
SMILES: CC(=O)OC[C@H]1O[C@@H](Oc2cc(O)c3c(=O)c(-c4ccc(O)cc4)coc3c2)[C@H](O)[C@@H](O)[C@@H]1O [acetylgenistin, 6″-O-acetylgenistin]
